From patent US9732119B2, “Immunomodulators” (BRISTOL-MYERS SQUIBB COMPANY, priority 2014, dated 2017)
Non-standard residues stand in square brackets, D forms with d. Residues, ends and D or L forms follow the SMILES beside them. Trp(1-CH2COOH) = N[C@@H](Cc1cn(CC(=O)O)c2ccccc12)C(=O)O; Phe(4-Cl) = N[C@@H](Cc1ccc(Cl)cc1)C(=O)O; Phe(4-F) = N[C@@H](Cc1ccc(F)cc1)C(=O)O; Phe(4-Me) = Cc1ccc(C[C@H](N)C(=O)O)cc1; Hyp = O=C(O)[C@@H]1C[C@@H](O)CN1; NMeNle = CCCC[C@H](NC)C(=O)O; Pip = O=C(O)[C@@H]1CCCCN1; Dab = NCC[C@H](N)C(=O)O; Dap = NC[C@H](N)C(=O)O; Ava = NCCCCC(=O)O

biological target: T1, PD-1-Ig binding to PD-L1-TVMV-His (PD-L1-His) (Homo sapiens, UniProt Q9NZQ7); assay: PD-1/PD-L1 Homogenous Time-Resolved Fluorescence (HTRF) binding assay; settings: PD-1-Ig (20 nM) / PD-L1-His (10 nM); range classes
T1 construct: hPDL1(19-239)-TVMV-His; made in house; host or cells: HEK293T cells
T1 sequence (Q9NZQ7 with tags, fused parts or gaps): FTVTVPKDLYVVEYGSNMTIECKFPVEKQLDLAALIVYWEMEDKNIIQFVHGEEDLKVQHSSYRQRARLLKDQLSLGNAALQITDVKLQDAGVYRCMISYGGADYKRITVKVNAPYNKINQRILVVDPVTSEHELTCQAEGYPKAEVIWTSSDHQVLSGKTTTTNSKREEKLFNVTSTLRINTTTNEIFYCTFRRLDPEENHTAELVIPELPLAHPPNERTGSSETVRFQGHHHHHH
Summary of the method: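 HTRF competition: compound pre-incubated 15 min with PD-L1-His (10 nM final), then PD-1-Ig (20 nM final) added for 15 min in dPBS, 0.1% BSA, 0.05% Tween-20. Detection with Eu-cryptate anti-Ig (1 nM) and APC anti-His (20 nM) antibodies.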

SMILES	IC50 [nM]
CCCC[C@H]1C(=O)N(C)[C@@H](CCCC)C(=O)N[C@@H](CC(C)C)C(=O)NCCCCC(=O)N[C@@H](Cc2ccc(OC)cc2)C(=O)N2CCCC[C@H]2C(=O)N[C@@H](CC(N)=O)C(=O)N2CCC[C@H]2C(=O)N[C@@H](CN)C(=O)N[C@@H](CC(C)C)C(=O)N2C[C@H](O)C[C@H]2C(=O)N[C@@H](Cc2c[nH]c3ccccc23)C(=O)N[C@@H](CCN)C(=O)N[C@@H](Cc2cn(CC(=O)O)c3ccccc23)C(=O)N1C [Example 10535] (cyclo([Ava]Y(Me)[Pip]NP[Dap]L[Hyp]W[Dab][Trp(1-CH2COOH)][NMeNle][NMeNle]L))	1 to 9.9
CCCC[C@H]1C(=O)N(C)[C@@H](CCCC)C(=O)N[C@@H](CC(C)C)C(=O)NCCCCC(=O)N[C@@H](Cc2ccc(F)cc2)C(=O)N2CCCC[C@H]2C(=O)N[C@@H](CC(N)=O)C(=O)N2CCC[C@H]2C(=O)N[C@@H](CN)C(=O)N[C@@H](CC(C)C)C(=O)N2C[C@H](O)C[C@H]2C(=O)N[C@@H](Cc2c[nH]c3ccccc23)C(=O)N[C@@H](CCN)C(=O)N[C@@H](Cc2cn(CC(=O)O)c3ccccc23)C(=O)N1C [Example 10536] (cyclo([Ava][Phe(4-F)][Pip]NP[Dap]L[Hyp]W[Dab][Trp(1-CH2COOH)][NMeNle][NMeNle]L))	1 to 9.9
CCCC[C@H]1C(=O)N(C)[C@@H](CCCC)C(=O)N[C@@H](CC(C)C)C(=O)N[C@H](C(N)=O)COCC(=O)N[C@@H](Cc2ccc(C)cc2)C(=O)N2CCCC[C@H]2C(=O)N[C@@H](CC(N)=O)C(=O)N2CCC[C@H]2C(=O)N[C@@H](CN)C(=O)N[C@@H](CCC(=O)O)C(=O)N2C[C@H](O)C[C@H]2C(=O)N[C@@H](Cc2c[nH]c3ccccc23)C(=O)N[C@@H](CCN)C(=O)N[C@@H](Cc2cn(CC(=O)O)c3ccccc23)C(=O)N1C [Example 10538]	1 to 9.9
CCCC[C@H]1C(=O)N(C)[C@@H](CCCC)C(=O)N[C@@H](CC(C)C)C(=O)NCCCCC(=O)N[C@@H](Cc2ccc(C)cc2)C(=O)N2CCCC[C@H]2C(=O)N[C@@H](CC(N)=O)C(=O)N2CCC[C@H]2C(=O)N[C@@H](CN)C(=O)N[C@@H](CCC(=O)O)C(=O)N2C[C@H](O)C[C@H]2C(=O)N[C@@H](Cc2c[nH]c3ccccc23)C(=O)N[C@@H](CCN)C(=O)N[C@@H](Cc2cn(CC(=O)O)c3ccccc23)C(=O)N1C [Example 10541] (cyclo([Ava][Phe(4-Me)][Pip]NP[Dap]E[Hyp]W[Dab][Trp(1-CH2COOH)][NMeNle][NMeNle]L))	1 to 9.9

Other lines, results leading:

IC50 [nM]	SMILES
10 to 99	CCCC[C@H]1C(=O)N(C)[C@@H](CCCC)C(=O)N[C@@H](CC(C)C)C(=O)NCCCCC(=O)N[C@@H](Cc2ccc(Cl)cc2)C(=O)N2CCCC[C@H]2C(=O)N[C@@H](CC(N)=O)C(=O)N2CCC[C@H]2C(=O)N[C@@H](CN)C(=O)N[C@@H](CC(C)C)C(=O)N2C[C@H](O)C[C@H]2C(=O)N[C@@H](Cc2c[nH]c3ccccc23)C(=O)N[C@@H](CCN)C(=O)N[C@@H](Cc2cn(CC(=O)O)c3ccccc23)C(=O)N1C [Example 10537] (cyclo([Ava][Phe(4-Cl)][Pip]NP[Dap]L[Hyp]W[Dab][Trp(1-CH2COOH)][NMeNle][NMeNle]L))
1 to 9.9	CCCC[C@H]1C(=O)N(C)[C@@H](CCCC)C(=O)N[C@@H](CC(C)C)C(=O)NCCCCC(=O)N[C@@H](Cc2ccc(C)cc2)C(=O)N2CCCC[C@H]2C(=O)N[C@@H](CC(N)=O)C(=O)N2CCC[C@H]2C(=O)N[C@@H](CN)C(=O)N[C@@H](CC(C)C)C(=O)N2C[C@H](O)C[C@H]2C(=O)N[C@@H](Cc2c[nH]c3ccccc23)C(=O)N[C@@H](CCN)C(=O)N[C@@H](Cc2cn(CC(=O)O)c3ccccc23)C(=O)N1C [Example 10540] (cyclo([Ava][Phe(4-Me)][Pip]NP[Dap]L[Hyp]W[Dab][Trp(1-CH2COOH)][NMeNle][NMeNle]L))
